Source: patent US9850276B2, “Bidentate-binding modulators of LRRK2 and JNK kinases” (THE SCRIPPS RESEARCH INSTITUTE, priority 2013, dated 2017)

Columns and labels:
[1] = system: cardiomyocyte apoptosis and infarct size; conditions: rats; cited from earlier work
H9c2 cells [2] = test: Mitochondrial membrane potential under H2O2 (Rhodamine 123 detection); format: cell-based; conditions: 25 μM H2O2
Procedure: (§1) To test whether JNK mitochondrial localization had effects on mitochondrial function we measured the impact of Tat-Sab, and a small molecule JNK inhibitor, SR-3306 (commercially available from Calbiochem), on ROS generation and mitochondrial membrane depolarization in H9c2 cells treated with H2O2. The ROS fluorescence/cell in the absence of oxidative stress (PBS), was compared to treatment with either 25 μM H2O2, or 25 μM H2O2+500 nM SR-3306, or 25 μM H2O2+3 μM Tat-scramble peptide, or 25 μM H2O2+3 μM Tat-Sab peptide.
(§2) A similar effect was seen when mitochondrial membrane potential was measured by Rhodamine 123 detection. […] Similarly, both ROS generation and membrane depolarization effects elicited by oxidative stress in H92c cells were blocked by inhibition of JNK with the small molecule, SR-3306 (commercially available from Calbiochem). Finally, the effect of SR-3306 or Tat-Sab on cell viability in response to oxidative stress was measured by a Cell-Titer Glo luminescent assay. H9c2 cells treated with 25 μM H2O2 were ˜40% viable, whereas addition of 500 nM SR-3306 to cells treated with 25 μM H2O2 increased viability to ˜80%, and addition of 3 μM Tat-Sab peptide to cells treated with 25 μM H2O2 increased viability to ˜65% compared to 95% viable in untreated cells.

H9c2 cells [3] = test: Cell viability under oxidative stress (Cell-Titer Glo luminescent assay); format: cell-based; conditions: 25 μM H2O2 + 500 nM SR-3306
Procedure: as §2

[4] = system: infarct size in rat hearts; test: I/R MI rat model, 30 minutes ischemia and 24 hours reperfusion; format: in vivo; conditions: 5 mg/kg SR-3306; anesthetized rats; p<0.05
Procedure: The in vivo efficacy of SR-3306 in anesthetized rats after 30 minutes ischemia and 24 hours reperfusion was evaluated.

H9c2 cells [5] = test: ROS generation under H2O2 oxidative stress; format: cell-based; conditions: 25 μM H2O2 + 500 nM SR-3306
Procedure: as §1

SMILES	cardiomyocyte apoptosis and infarct size after I/R [1]	mitochondrial membrane potential perturbation / depolarization (H9c2 cells [2])	cell viability (H9c2 cells [3]) [%]	infarct size (IS) [4]	reduction of ROS generation compared to 25 μM H2O2 treatment (H9c2 cells [5]) [fold]
N#CC(c1ccnc(NCCc2cccnc2)n1)c1nc2ccccc2s1 (centres unmarked) [AS601245]	decreased cardiomyocyte apoptosis and infarct size	–	–	–	–
Cc1ccc(-c2ncn(-c3ccc(Nc4nccc(-c5cccc(N6CCOCC6)c5)n4)cc3)n2)cn1 [SR-3306]	–	blocked	~80	23±3.5 % of AAR	~2
